Measurements taken from PMC8095338 (Neuro-oncology Advances, 2021).
Values joined by “and” are separate entries in the source; they are usually repeats but may differ in a detail not shown here. Equal values may be shown once. Read-outs that look alike come from different tables or passages of the source.

Columns and labels:
[1] = test system: ERK phosphorylation (p-ERK) in PBMCs; assay: Blood PD: p-ERK in ex vivo PMA-stimulated PBMCs (capillary western); set-up: species or system minipig; conditions: Sus scrofa, PBMC, all minipigs (WT and NF1), 2 to 5 h after single oral 7.3 mg/kg
Description: WT (n = 8) and NF1 (n = 8) minipigs received a single human equivalent oral dose of 450 mg (7.3 mg/kg).
PD analysis in blood was performed as described in a previous study, with some modifications.[13] […] Samples were stimulated with phorbol 12-myristate 13-acetate (PMA) (200 nM) or phosphate-buffered saline for 10 min at 37°C within 1 h of being drawn. Red blood cells were removed using standard ammonium-chloride-potassium (ACK) lysis. Peripheral blood mononuclear cells (PBMCs) were snap-frozen as dry pellets and stored at −80°C until analysis. Protein lysates from PBMCs were prepared as described in a previous study.[13] For tissues, protein lysates were prepared by transferring ~[…] of snap frozen tissue to a 1.7-mL microfuge tube containing radioimmunoprecipitation lysis buffer with protease and phosphatase inhibitors. The samples were then homogenized using a rotor-stator homogenizer for 2–4 cycles of 20 s and centrifuged for 10 min at 4°C. Concentrations were measured using the Pierce BCA Protein assay kit (Thermo #23227), according to the manufacturer’s instructions. […] Peaks of the appropriate molecular weight (42/44 kilodaltons) were detected in the resulting electropherograms and chemiluminescent signal was quantified by calculating the area under the peaks. The relative intensity of p-ERK to total ERK was then calculated as a ratio (p-ERK/ERK). […]

DUSP6 and FOS = assay: Transcript biomarkers of MEK inhibition in tissues (RT-PCR); format: in vivo, minipig; conditions: skin, sciatic nerve, optic nerve and cerebral cortex of all treated minipigs, 2 h after single oral 7.3 mg/kg
Description: WT (n = 8) and NF1 (n = 8) minipigs received a single human equivalent oral dose of 450 mg (7.3 mg/kg). Untreated WT (n = 4) and NF1 (n = 4) minipigs were also enrolled as controls. All animals were euthanized 2 h after drug administration. Tissue samples were collected from each animal at the same approximate locations and divided for analysis.
For RNA profiling, tissues were homogenized using ceramic homogenizers (Agilent 5982–9311) and a Beadblaster 24 (Benchmark D2400) for 3 cycles of 30 s each. RNA was extracted from all tissues using the RNeasy Mini kit (QIAGEN 74104) and RNA concentration and quality was measured by NanoDrop (Thermo). Analysis of transcript biomarkers of MEK inhibition was performed using the Fluidigm platform by Reverse Transcription, preamplification with pooled primers and Real Time-PCR on the Juno and BioMark using the following pig TaqMan primers (DUSP6-Ss06941845_m1; FOS -Ss03390402_m1; normalized to the average of pig housekeeping genes (B2M/Ss03391154_m1; HPRT1/Ss03388274_m1; PPIA/Ss03394782_g1; RPL13A/Ss03376908_u1; UBC/Ss03374343_g1, TFRC/Ss03391240_m1). Data were then normalized to the average of the control untreated group from matching WT or NF1 background (Log2 fold change, -ddCt).

[2] = Dose-finding study, plasma PK in wild-type minipigs; format: in vivo, minipig; conditions: for Cmax: female, WT minipig, plasma (data not shown)
Description: This was conducted to determine the dose required to reach the human equivalent therapeutic exposure. Human equivalent doses of 50, 75, 300, and 600 mg were tested. Each dose was administered orally to a 5-month-old wild-type female minipig. Blood was collected immediately prior to drug administration (T = 0) and 1, 2, 6, and 24 h after drug administration.

[3] = Plasma PK study in WT and NF1 minipigs (LC-MS/MS, noncompartmental); format: in vivo, minipig; conditions: for AUC: read-out: AUC0?∞
Description: Plasma isolation was performed as described in a previous study.[13] […] Tissues were harvested and immediately transferred to cryovials and stored at −80°C until analysis.
Standard curves and controls were generated using corresponding untreated tissue. Skin tissue was treated with collagenase, and all organ tissues were homogenized. Liquid extraction with ethyl acetate was then performed, followed by analysis. […] The chromatographic separation was performed as described.[13] Mass spectrometric detection was performed using multiple reaction monitoring in positive ionization mode. […] Ion source gases 1 and 2 were set at 50 and 50 psi, respectively; the curtain gas was at 20 psi and the collision gas at 4 psi. […] Data acquisition was performed with analyst 1.4.1 software (MDS-SCIEX).
The PK parameters included AUC–time curve from time 0 to ∞ (linear up, log down), Cmax, Tmax, and T1/2.

[4] = female, minipig, po, 7.3 mg/kg, individual NF1 F minipigs, single oral 7.3 mg/kg
[5] = female, minipig, po, 7.3 mg/kg, individual WT F minipigs, single oral 7.3 mg/kg
[6] = individual NF1 F minipigs, single oral 7.3 mg/kg, 7.3 mg/kg
[7] = individual NF1 M minipigs, single oral 7.3 mg/kg, 7.3 mg/kg
[8] = individual WT F minipigs, single oral 7.3 mg/kg, 7.3 mg/kg
[9] = individual WT M minipigs, single oral 7.3 mg/kg, 7.3 mg/kg
[10] = minipig, po, 7.3 mg/kg, all 16 minipigs (WT and NF1), median (range), single oral 7.3 mg/kg
[11] = minipig, po, 7.4 mg/kg, NF1 minipigs, 7.4 mg/kg single oral dose, median (range)
[12] = minipig, po, 7.4 mg/kg, WT minipigs, 7.4 mg/kg single oral dose, median (range)

In the case of `Cn1cnc2c(F)c(Nc3ccc(Br)cc3Cl)c(C(=O)NOCCO)cc21` [selumetinib], the inhibition at 7.3 mg/kg ([1]; read-out: maximal inhibition of p-ERK in PBMCs) is reported as at most 90%, the inhibition at 7.3 mg/kg ([1]; read-out: mean inhibition of p-ERK in PBMCs) is reported as 60% and the DUSP6 transcript expression (DUSP6 and FOS) is reported as “downregulated”. For the same molecule, the FOS transcript expression (DUSP6 and FOS) was “downregulated”, the “dose proportionality of selumetinib exposure” value ([2]; WT minipigs, from 75 to 300 mg human equivalent dose) was “dose proportional” and the Cmax ([2]; single oral 300 mg human equivalent dose) was 1000 ng/mL. For the same molecule, the Cmax ([2]; single oral 600 mg human equivalent dose) was 670 ng/mL, the Clast ([3]; all 16 minipigs (WT and NF1), median (range), single oral 7.3 mg/kg) was 22.7 ng/mL and the k el ([3]; female, minipig, individual WT F minipigs, single oral 7.3 mg/kg) was 2.78e-05 s⁻¹. For the same molecule, the half-life [3, 4] was 7.5 h, the AUC [3, 4] was 3560 ng·h/mL and the Cmax ([3]; female, minipig, po, 7.3 mg/kg, individual NF1 F minipigs, single oral 7.3 mg/kg, read-out: Cmax) was 812 ng/mL. For the same molecule, the half-life [3, 5] was 7.1 h, the AUC [3, 5] was 3680 ng·h/mL and the Cmax ([3]; female, minipig, po, 7.3 mg/kg, individual WT F minipigs, single oral 7.3 mg/kg, read-out: Cmax) was 636 ng/mL. For the same molecule, the Kel ([3]; individual NF1 F minipigs, single oral 7.3 mg/kg) was 0.1 h⁻¹, the “AUC0?∞” value [3, 6] was 5896 ng·h/mL and 5255 ng·h/mL and 4287 ng·h/mL and the Cmax [3, 6] was 678 ng/mL and 633 ng/mL and 571 ng/mL. The T1/2 [3, 6] was 7.6 h and 8.0 h and 8.2 h, the Tmax [3, 6] was 2.0 h and 0.5 h and the “AUC0?∞” value [3, 7] was 4116 ng·h/mL and 6092 ng·h/mL and 4344 ng·h/mL. The Cmax [3, 7] was 1480 ng/mL and 294 ng/mL and 766 ng/mL and 547 ng/mL, the T1/2 [3, 7] was 7.3 h and 14.7 h and 10.6 h and 6.1 h and the Tmax [3, 7] was 2.0 h. The “AUC0?∞” value [3, 8] was 5722 ng·h/mL and 5468 ng·h/mL and 5843 ng·h/mL, the Cmax [3, 8] was 573 ng/mL and 1040 ng/mL and 1020 ng/mL and the T1/2 [3, 8] was 10.1 h and 6.7 h and 7.8 h. The Tmax [3, 8] was 2.0 h and 0.5 h, the Kel ([3]; individual WT M minipigs, single oral 7.3 mg/kg) was 0.1 h⁻¹ and the “AUC0?∞” value [3, 9] was 3558 ng·h/mL and 9926 ng·h/mL and 5995 ng·h/mL and 5040 ng·h/mL. The Cmax [3, 9] was 266 ng/mL and 621 ng/mL and 861 ng/mL and 1270 ng/mL, the T1/2 [3, 9] was 6.7 h and 10.6 h and 11.8 h and the Tmax [3, 9] was 5 h and 0.5 h and 2.1 h. The k el ([3]; male, minipig, individual NF1 M minipigs, single oral 7.3 mg/kg) was 2.78e-05 s⁻¹, the AUC ([3]; male, minipig, po, 7.3 mg/kg, individual NF1 M minipigs, single oral 7.3 mg/kg) was 7930 ng·h/mL and the Tmax ([3]; male, minipig, po, 7.3 mg/kg, individual NF1 M minipigs, single oral 7.3 mg/kg, read-out: Tmax) was 1.1 h. It also gave a half-life ([3]; male, minipig, po, 7.3 mg/kg, individual WT M minipigs, single oral 7.3 mg/kg) of 12.3 h, a k el ([3]; minipig, all 16 minipigs (WT and NF1), median (range), single oral 7.3 mg/kg) of 2.78e-05 s⁻¹ and an AUC(0-inf) [3, 10] of 5360 ng·h/mL. The half-life [3, 10] was 7.9 h, the Cmax ([3]; minipig, po, 7.3 mg/kg, all 16 minipigs (WT and NF1), median (range), single oral 7.3 mg/kg, read-out: Cmax) was 657 ng/mL and the Tmax ([3]; minipig, po, 7.3 mg/kg, all 16 minipigs (WT and NF1), median (range), single oral 7.3 mg/kg, read-out: Tmax) was about 1 h. The AUC(0-inf) [3, 11] was 4800 ng·h/mL, the half-life [3, 11] was 7.8 h and the Cmax ([3]; minipig, po, 7.4 mg/kg, NF1 minipigs, 7.4 mg/kg single oral dose, median (range), read-out: Cmax) was 656 ng/mL. The Tmax ([3]; minipig, po, 7.4 mg/kg, NF1 minipigs, 7.4 mg/kg single oral dose, median (range), read-out: Tmax) was 1.1 h, the AUC(0-inf) [3, 12] was 5600 ng·h/mL and the half-life [3, 12] was 9 h. For the same molecule, the Cmax ([3]; minipig, po, 7.4 mg/kg, WT minipigs, 7.4 mg/kg single oral dose, median (range), read-out: Cmax) was 749 ng/mL.
